PubChem BioAssay (NCI)
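Five compound concentrations were applied to cells in 96-well plates for 48 hours; endpoints were derived by simple linear interpolation of the resulting dose-response curve. Abbreviation: GI50, concentration required for 50% inhibition of growth. TGI: total growth inhibition.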

Tests used:
Assay in all cases: growth of human tumour cells (NCI), 48 h
MOLT-4 leukemia = tested on: MOLT-4 leukemia
HT29 colon = tested on: HT29 colon
M14 melanoma = tested on: M14 melanoma
COLO 205 colon = tested on: COLO 205 colon
CAKI-1 renal = tested on: CAKI-1 renal
SK-MEL-28 melanoma = tested on: SK-MEL-28 melanoma
HCC-2998 colon = tested on: HCC-2998 colon
HL-60(TB) leukemia = tested on: HL-60(TB) leukemia
IGROV1 ovarian = tested on: IGROV1 ovarian
NCI-H522 lung = tested on: NCI-H522 lung
OVCAR-8 ovarian = tested on: OVCAR-8 ovarian
HS 578T breast = tested on: HS 578T breast

SMILES	TGI (MOLT-4 leukemia)	TGI (HT29 colon)	TGI (M14 melanoma)	TGI (COLO 205 colon)	TGI (CAKI-1 renal)	TGI (SK-MEL-28 melanoma)	TGI (HCC-2998 colon)	TGI (HL-60(TB) leukemia)	TGI (IGROV1 ovarian)	TGI (NCI-H522 lung)	TGI (OVCAR-8 ovarian)	TGI (HS 578T breast)	GI50 (MOLT-4 leukemia)	GI50 (HT29 colon)	GI50 (COLO 205 colon)	GI50 (CAKI-1 renal)	GI50 (SK-MEL-28 melanoma)	GI50 (HCC-2998 colon)	GI50 (HL-60(TB) leukemia)
CC1CC(c2ccc([N+](=O)[O-])cc2)=Nc2ccccc2S1=O (stereo not given)	> 100 µM	27.2 µM	35 µM	33.5 µM	61.2 µM	43.6 µM	36.8 µM	50.5 µM	31.8 µM	25.9 µM	32.9 µM	–	–	–	–	–	–	–	–
Cc1ccc(C(=O)N/N=C(\N=Nc2ccccc2)c2ccc(N(CCC#N)CCC#N)cc2C)cc1	> 100 µM	> 100 µM	> 100 µM	> 100 µM	> 100 µM	> 100 µM	> 100 µM	> 100 µM	> 100 µM	61.3 µM	> 100 µM	> 100 µM	–	–	–	–	–	–	–
O=c1[nH]c(=S)c2[nH]c(=O)n(-c3ccccc3)c2[nH]1	> 100 µM	> 100 µM	> 100 µM	–	> 100 µM	> 100 µM	> 100 µM	–	> 100 µM	> 100 µM	> 100 µM	> 100 µM	–	–	–	–	–	–	–
COc1ccc2oc3c(ccc[n+]3C)c(=O)c2c1	–	> 100 µM	> 100 µM	> 100 µM	> 100 µM	> 100 µM	> 100 µM	> 100 µM	> 100 µM	> 100 µM	> 100 µM	> 100 µM	–	–	–	–	–	–	–
CC(=O)O[C@@H]1CN(S(=O)(=O)c2ccc(C)cc2)C[C@@H]1C1CCCCC1	65.3 µM	74 µM	29.3 µM	46.5 µM	45.6 µM	34.3 µM	> 100 µM	–	38.6 µM	–	69.6 µM	23.7 µM	–	–	–	–	–	–	–
O=C1NC(=O)C2(CCc3ccc(N(CCCl)CCCl)cc32)N1 (stereo not given)	49.8 µM	59.3 µM	–	17.5 µM	> 47.9 µM	38.1 µM	34.1 µM	9.75 µM	34.6 µM	20.3 µM	36.2 µM	–	–	–	–	–	–	–	–
C/C=C1/C(=O)O[C@]23C=C[C@@H]4C(C(=O)OC)=CO[C@H](O[C@@H]12)[C@@H]43	3.83 µM	9.06 µM	–	3.29 µM	3.21 µM	7.63 µM	5.99 µM	3.06 µM	4.88 µM	2.19 µM	11.4 µM	–	–	–	–	–	–	–	–
COc1cc2c(cc1O)N=C[C@@H]1CCC(O)N1C2=O (mixture of isomers)	2.69 µM	72.9 µM	–	1.93 µM	11.7 µM	2.84 µM	2.81 µM	11.1 µM	75.5 µM	0.636 µM	10 µM	–	–	–	–	–	–	–	–
Nc1ccc2c(c1)S(=O)(=O)c1cc(N)ccc1-2	> 100 µM	> 100 µM	> 100 µM	> 100 µM	> 100 µM	–	> 100 µM	> 100 µM	> 100 µM	> 100 µM	> 100 µM	> 100 µM	–	–	–	–	–	–	–
O=c1ccc2nc3ccc(O)cc3oc-2c1	> 100 µM	> 75.9 µM	19.5 µM	24.9 µM	> 100 µM	–	> 100 µM	25.4 µM	> 100 µM	> 73.5 µM	> 100 µM	> 60 µM	–	–	–	–	–	–	–
CC(CNc1nc(Nc2ccc(Cl)c(Cl)c2)nc(C(Cl)(Cl)Cl)n1)N(C)C (stereo not given)	3.78 µM	3.11 µM	–	3.39 µM	3.59 µM	3.29 µM	3.04 µM	3.54 µM	–	–	–	–	1.72 µM	1.66 µM	1.83 µM	1.7 µM	1.83 µM	1.58 µM	1.69 µM
